Data on 1 molecule can be found in patent US10299999B2, “Flavour composition comprising menthol and menthane carboxamides” (Givaudan, S.A., priority 2011, dated 2019).

The nature of the experiment: Toothpaste sensory panel: flavours A-C at 1% in silica toothpaste base, scored 0-10 for cooling, tingling, freshness and overall preference. Conditions: low levels replacing high levels of menthol in a toothpaste flavour. Format: in vivo, naive volunteers. How it is done: The Flavours were each incorporated into a standard silica toothpaste base at 1%:
All three toothpastes were coded and given to 37 naive volunteers. The volunteers were asked to brush the teeth for 30 seconds and score each toothpaste (0-10 scale) for cooling, tingling and freshness at each of six time points: 0 minutes, 5 minutes, 10 minutes, 20 minutes, 30 minutes and 60 minutes. At the end of the 60 minutes, they were also asked for their overall preference scores (0-10 scale).

On to `CC(C)[C@@H]1CC[C@@H](C)C[C@H]1C(=O)Nc1ccc(CC#N)cc1` (stereo in doubt) [Evercool 180, N-(4-cyanomethylphenyl) p-menthanecarboxamide], for which the “sensorial benefits compared with the flavour with the high levels of menthol” value is recorded as “superior sensorial benefits”.
